In patent US20090075972A1, “Use of Midostaurin for Treating Gastrointestinal Stromal Tumors” (priority 2004, published 2009):
Where two headings read alike, the source gives them in different places.

Tests used:
GISTs = conditions: one reported study; cited from earlier work
[1] = human trials; cited from earlier work
KITΔ557-558/T670I [2] = biological target: T1, KITΔ557-558/T670I (Homo sapiens, UniProt P10721, DEL557-558/T670I); conditions: 90 min, KITΔ557-558/T670I cells
Method: (§1) Western-blot: Snap-frozen tumor specimens sufficient for preparation of cell lysates were available from ten refractory GISTs. Cell lysis, SDS-PAGE and immunoblotting were carried out as described.^21 Membranes (Amnersham Pharmacia Biotechnology, UK) were immunoblotted overnight using anti-phospho-KIT (Y703) (Zymed, San Francisco, Calif.) antibody at dilution of 1:500. The HRP-conjugated anti-rabbit IgG was used at a dilution of 1:2500 and visualized with Enhanced Chemiluminescence (Pierce). Membranes were then stripped and re-blotted to determine total protein levels using an antibody recognizing total KIT protein (anti-CD117, A4502, DAKO, Glostrup, Denmark).
(§2) Experiments are performed with serial dilutions of the 10 mM stock. Controls are performed with solvent (DMSO) dilutions. Primary cells are obtained from collagenase disaggregated progressive tumor specimens, seeded at 60-70% confluence in 100-mm cell culture dishes (Corning Inc., Corning, N.Y.) and grown for three days in DMEM supplemented with 10% fetal bovine serum, 0.1 mM nonessential amino acids, and 1.0 mM sodium pyruvate.
(§3) The results are compared with GIST882 cells, which carry a hemizygous KIT K642E mutation. Observations are standardized for total KIT expression using anti-KIT antibody.

KITInsAY502-503/V654A = KITInsAY502-503/V654A (Homo sapiens, UniProt P10721, INS503AY/V654A); conditions: KITIns503AY/V654A cells
Method: as §1, §2, §3

[3] = test system: T674 I mutant form of FIPL1-PDGFRA; conditions: refractory CEL patients; Cools J. et al., Cancer Cell 2003; cited from earlier work
KITΔ557-558/T670I [4] = biological target: T1, KITΔ557-558/T670I; conditions: Ba/F3 cells
Method: (§4) Construct: Mutant PDGFRA and KIT cDNA are obtained by RT-PCR on RNA isolated from progressive tumors. The cDNA's are cloned into the retroviral vector pMSCV-puro (Clontech).
(§5) Cell culture: 293T cells are grown in DMEM supplemented with 10% FCS. Ba/F3 cells are grown in RPMI-1640 supplemented with 10% FCS and interleukin-3 (1 ng/ml). Virus as produced as described previously, see e.g. Cools J. et al., N Engl J Med 2003; 348:1201-1214.
(§6) .Ba/F3 cells transduced with the different constructs are selected with puromycin (2 μg/ml). To test for factor independent growth, Ba/F3 cells are washed 3 times in PBS and new cultures are initiated in the absence of interleukin-3. Cells that became independent on interleukin-3, are maintained in the absence of interleukin-3. For dose-response curves, Ba/F3 cells are grown in 24-well plates with different concentrations of inhibitor. The number of viable cells is determined at the start and after 24 hrs, using the AqueousOne solution (Promega).
(§7) Ba/F3 cells are IL3 dependent for their growth, but become IL3 independent upon the expression of many activated kinases, such as FIP1 L1-PDGFRA and BCR-ABL. […] The PDGFRA ΔDIM842-844 mutant serve as a control in this experiment.

PDGFRA D842V = biological target: T2, PDGFRA D842V (Homo sapiens, UniProt P16234, D842V); assay: Dose response curves of Ba/F3 cells expressing mutant kinase (viable cells after 24 hrs); assay type: cell-based
T2 construct: expressed in transfected cells; host or cells: Ba/F3 murine cells, retroviral transduction with pMSCV-puro
Method: as §4, §5, §6, §7

PDGFRA ΔDIM842-844 = biological target: T3, PDGFRA ΔDIM842-844 (Homo sapiens, UniProt P16234, DEL842-844); assay: as above; assay type: cell-based
T3 construct: expressed in transfected cells; host or cells: Ba/F3 murine cells, retroviral transduction with pMSCV-puro
Method: as §4, §5, §6, §7

Compound | patients with primary resistance to imatinib (GISTs) | Maximum Tolerated Dose (MTD), total dose [1] | KIT autophosphorylation (KITΔ557-558/T670I [2]; 0.5 μM) | KIT autophosphorylation (KITΔ557-558/T670I [2]; 1 μM) | KIT autophosphorylation (KITInsAY502-503/V654A; 0.5 μM, 90 min) | KIT autophosphorylation (KITInsAY502-503/V654A; ten-fold higher concentration than 0.5 μM) | inhibitory activity against imatinib-resistant T674I FIPL1-PDGFRA [3] | concentration at which mutant is inhibited (KITΔ557-558/T670I [4]) | inhibition of PDGFRA D842V mutant (PDGFRA D842V; 1 μM) | concentration at which mutant is inhibited (PDGFRA D842V; PDGFRA D842V) | concentration at which mutant is inhibited (PDGFRA ΔDIM842-844)
Cc1ccc(NC(=O)c2ccc(CN3CCN(C)CC3)cc2)cc1Nc1nccc(-c2cccnc2)n1 [imatinib] | 13.7% | – | – | – | – | – | – | – | – | – | –
CO[C@@H]1[C@H](N(C)C(=O)c2ccccc2)C[C@H]2O[C@]1(C)n1c3ccccc3c3c4c(c5c6ccccc6n2c5c31)C(=O)NC4 [PKC412, N-[(9S,10R,11R,13R)-2,3,10,11,12,13-hexahydro-10-methoxy-9-methyl-1-oxo-9,13-epoxy-1H,9H-diindolo[1,2,3-gh:3′,2′,1′-lm]pyrrolo[3,4-j][1,7]benzodiazonin-11-yl]-N-methylbenzamide] | – | ~225 mg/day | reduced | totally inhibit | reduced | completely inhibited | full inhibitory activity | below 1 μM | efficiently inhibits | below 1 μM | below 1 μM
